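Step 1: Grow cells in 96-well plates. Step 2: Expose to compound for 48 hours at 5 concentrations. Step 3: Interpolate endpoints linearly; if unreached, use highest concentration. The concentration for full growth arrest is given as TGI.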
Tests used:
Test in all cases: inhibition of tumour cell growth, NCI panel, 48 h
SF-268 CNS = tested on: SF-268 CNS
LOX IMVI melanoma = tested on: LOX IMVI melanoma
HT29 colon = tested on: HT29 colon
RXF 393 renal = tested on: RXF 393 renal
K-562 leukemia = tested on: K-562 leukemia
COLO 205 colon = tested on: COLO 205 colon
NCI/ADR-RES ovarian = tested on: NCI/ADR-RES ovarian
HCT-116 colon = tested on: HCT-116 colon
HOP-62 NSCLC = tested on: HOP-62 NSCLC
UO-31 renal = tested on: UO-31 renal
OVCAR-5 ovarian = tested on: OVCAR-5 ovarian
MALME-3M melanoma = tested on: MALME-3M melanoma
NCI-H23 lung = tested on: NCI-H23 lung
NCI-H226 lung = tested on: NCI-H226 lung
SN12C renal = tested on: SN12C renal
SK-MEL-2 melanoma = tested on: SK-MEL-2 melanoma
PC-3 prostate = tested on: PC-3 prostate
HOP-92 NSCLC = tested on: HOP-92 NSCLC
BT-549 breast = tested on: BT-549 breast
EKVX NSCLC = tested on: EKVX NSCLC
NCI-H460 lung = tested on: NCI-H460 lung
SNB-75 CNS = tested on: SNB-75 CNS
M14 melanoma = tested on: M14 melanoma
OVCAR-4 ovarian = tested on: OVCAR-4 ovarian
A498 renal = tested on: A498 renal
SF-539 CNS = tested on: SF-539 CNS
MCF7 breast = tested on: MCF7 breast
A549 NSCLC = tested on: A549 NSCLC
U251 CNS = tested on: U251 CNS
786-0 renal = tested on: 786-0 renal
MDA-N = tested on: MDA-N
HS 578T breast = tested on: HS 578T breast
SNB-19 CNS = tested on: SNB-19 CNS
SF-295 CNS = tested on: SF-295 CNS
T-47D breast = tested on: T-47D breast
MDA-MB-435 = tested on: MDA-MB-435
UACC-257 melanoma = tested on: UACC-257 melanoma
HCT-15 colon = tested on: HCT-15 colon
SK-MEL-28 melanoma = tested on: SK-MEL-28 melanoma
ACHN renal = tested on: ACHN renal
KM12 colon = tested on: KM12 colon
CAKI-1 renal = tested on: CAKI-1 renal
SR leukemia = tested on: SR leukemia
UACC-62 melanoma = tested on: UACC-62 melanoma
TK-10 renal = tested on: TK-10 renal
SK-MEL-5 melanoma = tested on: SK-MEL-5 melanoma
DU-145 prostate = tested on: DU-145 prostate
HCC-2998 colon = tested on: HCC-2998 colon
RPMI-8226 leukemia = tested on: RPMI-8226 leukemia
OVCAR-8 ovarian = tested on: OVCAR-8 ovarian
MDA-MB-231 breast = tested on: MDA-MB-231 breast
NCI-H522 lung = tested on: NCI-H522 lung
SW-620 colon = tested on: SW-620 colon
MOLT-4 leukemia = tested on: MOLT-4 leukemia
IGROV1 ovarian = tested on: IGROV1 ovarian

Nc1ccc(N(S(=O)(=O)c2ccccc2)S(=O)(=O)c2ccccc2)c(Cl)c1
TGI (SF-268 CNS): > 100 µM
TGI (LOX IMVI melanoma): > 100 µM
TGI (HT29 colon): > 100 µM
TGI (RXF 393 renal): > 100 µM
TGI (K-562 leukemia): > 100 µM
TGI (COLO 205 colon): > 100 µM
TGI (NCI/ADR-RES ovarian): > 100 µM
TGI (HCT-116 colon): > 100 µM
TGI (HOP-62 NSCLC): > 100 µM
TGI (UO-31 renal): > 100 µM
TGI (OVCAR-5 ovarian): > 100 µM
TGI (MALME-3M melanoma): > 100 µM
TGI (NCI-H23 lung): > 100 µM
TGI (NCI-H226 lung): > 100 µM
TGI (SN12C renal): > 100 µM
TGI (SK-MEL-2 melanoma): > 100 µM
TGI (PC-3 prostate): > 100 µM
TGI (HOP-92 NSCLC): > 100 µM
TGI (BT-549 breast): > 100 µM
TGI (EKVX NSCLC): > 100 µM
TGI (NCI-H460 lung): > 100 µM
TGI (SNB-75 CNS): > 100 µM
TGI (M14 melanoma): > 100 µM
TGI (OVCAR-4 ovarian): > 100 µM
TGI (A498 renal): 98.2 µM
TGI (SF-539 CNS): > 100 µM
TGI (MCF7 breast): > 100 µM
TGI (A549 NSCLC): > 100 µM
TGI (U251 CNS): > 100 µM
TGI (786-0 renal): > 100 µM
TGI (MDA-N): > 100 µM
TGI (HS 578T breast): > 100 µM
TGI (SNB-19 CNS): > 100 µM
TGI (SF-295 CNS): > 100 µM
TGI (T-47D breast): > 100 µM
TGI (MDA-MB-435): > 100 µM
TGI (UACC-257 melanoma): > 100 µM
TGI (HCT-15 colon): > 100 µM
TGI (SK-MEL-28 melanoma): > 100 µM
TGI (ACHN renal): > 100 µM
TGI (KM12 colon): > 100 µM
TGI (CAKI-1 renal): > 100 µM
TGI (SR leukemia): > 100 µM
TGI (UACC-62 melanoma): > 100 µM
TGI (TK-10 renal): > 100 µM
TGI (SK-MEL-5 melanoma): 50.4 µM
TGI (DU-145 prostate): > 100 µM
TGI (HCC-2998 colon): 64.2 µM
TGI (RPMI-8226 leukemia): > 100 µM
TGI (OVCAR-8 ovarian): > 100 µM
TGI (MDA-MB-231 breast): > 100 µM
TGI (NCI-H522 lung): > 100 µM
TGI (SW-620 colon): > 100 µM
TGI (MOLT-4 leukemia): 60.5 µM
TGI (IGROV1 ovarian): > 100 µM

Source: PubChem BioAssay (NCI)
